Measurements as given in patent US20220362127A1, “BIOENERGETIC COMBINATIONS AND METHODS OF USING SAME” (Conopco, Inc., d/b/a UNILEVER, priority 2019, published 2022).
Marks after values point to notes of the source that are not given here.

What was measured:
human keratinocytes [1] = assay: Mitochondrial fragmentation in keratinocytes, UV Study (Example 2), TPEF imaging of NADH, PSD exponent β; type: cell-based; details: B3 10 mM, AceMet 500 uM, MeNAM 10 mM alone or 500 uM with B3; for Effect on UV-induced mitochondrial fragmentation in words: UV-exposed; for Mitochondrial Fragmentation (−) UV (3 days) / Mitochondrial Fragmentation (+) UV (4 days): keratinocytes; for Mitochondrial Fragmentation (−) UV (3 days): 3 days before UV exposure, control 1.30; for Mitochondrial Fragmentation (+) UV (4 days): 4 days after UV exposure (4 J/cm^2 UVA+UVB, 14 min daily), UV control 1.58
Experimental: Test compounds (B3, AceMet and MeNAM) were purchased from Sigma (St. Louis, Mo.). Cell culture growth media (Epilife media with calcium (Cat #MEPI500CA) and Epilife media supplement HKGS 100X (Cat #S-001-5)) was purchased from Thermofisher (Waltham, Mass.). Cryopreserved human keratinocytes cells (˜1×10^6 cells) were plated on 12-well glass bottom plates at a confluence of ˜15%. The cells were suspended in primary keratinocyte growth media (Epilife media with calcium) and incubated @ 37° C. for 1d (Day 0). At Day 1, cells began treatment with supplemented primary keratinocyte growth media (Epilife media with calcium supplemented with HKGS 100X; 25 ml total) without test compound (Control sample) or containing test compounds B3 (10 mM), MeNAM (10 mM), AceMet (500 uM), B3 (10 mM)+AceMet (500 uM) or B3 (10 mM)+MeNAM (500 uM). Cell treatment (25 ml media with or without test compounds as above) continued daily for 4 additional days (Non-UV Study—Example 1) or 2 additional days (UV Study—Example 2). For the UV Study, cells were subjected to UV treatment on Day 4 by replacing media with PBS, exposing cells to UV light (4 J/cm^2 of UVA+UVB) for 14 min and feeding cells with media with or without corresponding test compounds as defined above. UV treatments continued daily for 3 additional days (Days 5, 6 and 7). Image acquisition and analysis on all cell wells to assess mitochondrial fragmentation was conducted on Day 1, 3, 5 and 8.
(§1) For two-photon excited fluorescence (TPEF) imaging, cell cultures were placed in microscope-compatible micro-incubator system, which maintained 37° C. within a humidified environment throughout the imaging session.
HEPES buffering agent (Sigma) was added to cell cultures in primary keratinocyte growth medium before imaging, which maintained the pH of cell cultures throughout the imaging session. Images were obtained using a Leica TCS SP8 confocal microscope equipped with a tunable (680-1300 nm) titanium-sapphire laser (InSight Deep See; Spectra Physics; Mountain View, Calif.). Images (1024×1024 pixels; 386×386 μm) were acquired using water-immersion 25×objective (NA 0.95; 2.4 mm working distance), with simultaneous collection by two non-descanned photomultiplier tube (PMT) detectors using a filter cube containing filters from Chroma (Bellows Falls, Vt.), including a 700 nm short pass filter (ET700SP-2P) and a 495 nm dichroic mirror (495DCXR). To isolate NADH fluorescence, a 460(±20) nm emission filter (Chroma, ET460/40M-2P), corresponding to the NADH emission peak, was placed before one of the non-descanned detectors. NADH fluorescence images were acquired from this 460 nm channel using 755 nm excitation. FAD fluorescence was isolated using a 525(±25) nm emission filter (Chroma, ET525/50M-2P) for the other non-descanned detector and 860 nm excitation. The two-photon action cross section of NADH decreases by several orders of magnitude between 755 nm and 860 nm excitation, enabling an efficient isolation of FAD at longer wavelengths. The fluorescence lifetime images (512×512 pixels; 386×386 μm) corresponding to NADH were acquired under the same excitation and emission settings, using SymPho software. PMT gain was adjusted for each image to maximize contrast while preventing a saturated pixel intensity value. The PMT gain and laser power were recorded for each image and used to normalize fluorescence intensity.
To assess mitochondrial fragmentation, a previously established Fourier transform technique was used to obtain power spectral density (PSD) curves from each image. […]

human keratinocytes [2] = assay: Mitochondrial fragmentation in keratinocytes (Non-UV Study, Example 1), TPEF imaging of NADH, PSD exponent β; type: cell-based; details: no UV, B3 10 mM
Experimental: Test compounds (B3, AceMet and MeNAM) were purchased from Sigma (St. Louis, Mo.). Cell culture growth media (Epilife media with calcium (Cat #MEPI500CA) and Epilife media supplement HKGS 100X (Cat #S-001-5)) was purchased from Thermofisher (Waltham, Mass.). Cryopreserved human keratinocytes cells (˜1×10^6 cells) were plated on 12-well glass bottom plates at a confluence of ˜15%. The cells were suspended in primary keratinocyte growth media (Epilife media with calcium) and incubated @ 37° C. for 1d (Day 0). […]
as §1
HEPES buffering agent (Sigma) was added to cell cultures in primary keratinocyte growth medium before imaging, which maintained the pH of cell cultures throughout the imaging session. […] To isolate NADH fluorescence, a 460(±20) nm emission filter (Chroma, ET460/40M-2P), corresponding to the NADH emission peak, was placed before one of the non-descanned detectors. NADH fluorescence images were acquired from this 460 nm channel using 755 nm excitation. FAD fluorescence was isolated using a 525(±25) nm emission filter (Chroma, ET525/50M-2P) for the other non-descanned detector and 860 nm excitation. […]

Row | Structure (SMILES) | Effect on mitochondrial fragmentation in words, Non UV-exposed keratinocytes (human keratinocytes [1]) | Effect on UV-induced mitochondrial fragmentation in words (human keratinocytes [1]) | Mitochondrial Fragmentation (−) UV (3 days) (human keratinocytes [1]) | Mitochondrial Fragmentation (+) UV (4 days) (human keratinocytes [1]) | Mitochondrial Fragmentation (human keratinocytes [2]; keratinocytes after 5 days exposure, AceMet 500 uM, MeNAM 500 uM, higher value = less protection, control 1.88) | Effect on mitochondrial fragmentation in words (human keratinocytes [2]; keratinocytes, 5 days, AceMet or MeNAM 500 uM)
1 | CSCC[C@H](NC(C)=O)C(=O)O [AceMet, N-acetylmethionine] | does not significantly reduce mitochondrial fragmentation | increases mitochondrial fragmentation beyond UV-exposed levels | 1.47^c,e | 1.76^c,e,h | – | –
2 | NC(=O)c1cccnc1 [B3, Nicotinamide] | does not significantly reduce mitochondrial fragmentation | effective at reducing this UV-induced effect down to control levels | 1.18 | 1.34 ^d | 1.67 ^a | decreases mitochondrial fragmentation
3 | C[n+]1cccc(C(N)=O)c1 [MeNAM, 1-methylnicotinamide chloride] | significantly reduces mitochondrial fragmentation | effective at reducing this UV-induced effect down to control levels | 1.15^a | 1.29^a,d | – | –
